Assay [1] can be described thus: Tasting in mango juice drink, 1% clear mango juice. To be noted: 1 ppm, 8% sucrose, 0.1% citric acid, mango flavour 0.05%. As to the method:
Comparison in a Mango Juice Drink
Base is 8% sucrose, 0.1% citric acid, 1% clear mango juice, and a proprietary mango flavour at 0.05%.
(§1) Samples were evaluated by expert tasters. Tasters were asked to describe the samples focusing on authentic taste, mouthfeel, fullness, salty-ness, salivation, umami, sweetness, juiciness, richness, long lastingness and fattiness.
Base is water, 8% sucrose, 0.1% citric acid, 1% clear mango juice, proprietary mango flavour @ 0.05%
(§2) Samples were evaluated by expert tasters. Tasters were asked to describe the samples focusing on authentic taste, mouthfeel, fullness, salivation, salty-ness, umami, sweetness, juiciness, richness, long lastingness and fattiness.
Base is water, 8% sucrose, 0.1% citric acid, 1% clear mango juice, proprietary mango flavour @0.05%
(§3) Samples were evaluated by expert tasters. Tasters were asked to describe the samples focusing on authentic taste, mouthfeel, fullness, salty-ness, salivation, umami, sweetness, juiciness, richness, long lastingness and fattiness
Base is 8% sucrose, 0.1% citric acid, 1% clear mango juice, proprietary mango flavour @ 0.05%
(§4) Samples were evaluated by expert tasters. Tasters were asked to describe the samples focusing on authentic taste, mouth feel, fullness, salivation, salty-ness, umami, sweetness, juiciness, richness, long lastingness and fattiness
Base is water, 8% sucrose, 0.1% citric acid, 1% clear mango juice, proprietary mango flavour @ 0.05%.
Test in a Mango Juice Drink

Assay [2] in a line: Tasting in vanilla milk 0.15% fat. To be noted: 4% sucrose, Vaniline 10 ppm + vanilla extract 0.03%. As to the method:
(§5) Samples were prepared and evaluated by expert tasters. Tasters were asked to describe the samples focusing on authentic taste, mouthfeel, fullness, salty-ness, salivation, umami, sweetness, juiciness, richness, long lastingness and fattiness.
Base: Milk 0.15% fat, sweetened with 4% sucrose by weight, flavoured with proprietary
Vaniline flavour @ 10 ppm+Vanilla ext. @ 0.03%
as §1
Comparison in a Vanilla Milk Drink
Vaniline @ 10 ppm+Vanilla extract @ 0.03%
Base: Milk 0.15% fat, sweetened with 4% sucrose by weight, flavoured with proprietary Vaniline @ 10 ppm+Vanilla extract @ 0.03%

The nature of assay [3]: Test in chocolate flavoured drink. To be noted: water, 4% sucrose, chocolate flavour 0.03%. The protocol:
as §5
Test in Chocolate Flavoured Drink:
Base: Water, 4% sucrose, proprietary chocolate flavor at 0.03%
as §1
Test in Chocolate Flavoured Drink Flavoured
Base: Water, 4% sucrose, proprietary chocolate flavour @ 0.03%

Assay [4] is described as follows: Test in pear flavoured drink. The conditions noted are these: water, 0.1% citric acid, pear flavour 0.025%. The protocol: as §5
Test in Pear Flavoured Drink:
Base: water, 7% sugar, 0.1% citric acid, proprietary pear flavour at 0.025%
as §1
Comparison in a Pear Drink
Base is water, 8% sugar, 0.1% citric acid, proprietary pear flavour at 0.025%

Assay [5] can be described thus: Test in peach flavoured drink. The conditions noted are these: 1 ppm; water, 8% sugar, 0.1% citric acid, peach flavour 0.05%. The protocol:
as §5
Test in Peach Flavoured Drink:
Base is water, 8% sugar, 0.1% citric acid, and proprietary peach flavour at 0.05%
as §1
Comparison in a Peach Drink
Base is water, 8% sugar, 0.1% citric acid, proprietary peach flavour at 0.05%
as §2

A short description of assay [6]: Tasting in vanilla flavoured milk 3.0% fat. The conditions noted are these: 4% sugar, vanillin 10 ppm, vanilla extract 0.03%. As to the method:
Vanilla Flavoured Milk 3.0% Fat
In a 3% fat milk drink, sweetened with 4% sucrose by weight, flavoured with Vaniline @ 10 ppm and a Vanilla extract @ 0.03% C18:2-gaba, C18:1-ACOA and C18:1-glu were added at 0.5 or 2 ppm.
Samples were evaluated by expert tasters. Tasters were asked to describe the samples focusing on authentic taste, mouthfeel, fullness, salivation, sweetness, juiciness, richness, long lastingness and fattiness.
Base: Milk 3% fat, 4% sugar, vanillin 10 ppm, vanilla extract 0.03%

Assay [7] is described as follows: Tasting in strawberry drink. The conditions noted are these: 0.5 ppm; 7% sucrose, 0.1% citric acid, strawberry flavour 0.015%. As to the method: as §5
Comparison in a Strawberry Drink
Base is 7% sucrose, 0.1% citric acid, and a proprietary strawberry flavour @ 0.015%
as §1
Base is water, 7% sucrose, 0.1% citric acid, proprietary strawberry flavour @ 0.015%
as §2
Test in a Strawberry Drink
Base is 7% sucrose, 0.1% citric acid, proprietary strawberry flavour @ 0.015%

Assay [8] is described as follows: Tasting in beef bouillon base. To be noted: 0.5% fat. The protocol:
(§6) The following formulations were prepared and tasted by trained panelists.
Beef Bouillon base 1.0% salt, 0.5% fat

Assay [9] is described as follows: Tasting on fried potato snack product. To be noted: 35% fat, cheese seasoning. As to the method:
as §6
A snack product consisting of a fried potato base, containing 35% fat and flavored with cheese seasoning containing salt, MSG, dairy, organic acids, sugars, and a flavour formulation. The following compounds were added to the snack product at the indicated levels and the tasting results are reported: […]

Assay [10] is described as follows: Tasting in Maggi beef bouillon. The conditions noted are these: Maggi beef bouillon 1 tablet in 500 ml of hot water. The protocol:
as §5
Comparison in Beef Bouillon
Base is Maggi beef bouillon 1 tablet in 500 ml of hot water
as §1, §2, §3, §4

Assay [11] in a line: Test in orange beverage. To be noted: 1 ppm; water, 7% sugar (8% sucrose elsewhere in the source), 0.1% citric acid, orange flavour 0.06%. As to the method: as §1
Base is water, 7% sugar, 0.1% citric acid, proprietary orange flavour @ 0.06%.
as §3
Base is water, 7% sugar, 0.1% citric acid, proprietary orange flavour @ 0.06%
as §4
Samples were evaluated by expert tasters. Tasters were asked to describe the samples focusing on authentic taste, mouthfeel, fullness, salivation, sweetness, juiciness, richness, long lastingness and fattiness
Comparison in an Orange Drink
Base: water, 8% sucrose, 0.1% citric acid, proprietary orange flavour @ 0.06%.

Assay [12] in a line: Test in lemon beverage. The conditions noted are these: 1 ppm; water, 7% sucrose, 0.15% citric acid, lemon flavor. As to the method: as §1
Basis water, 7% sucrose, 0.15% citric acid, proprietary lemon flavor
as §3

Assay [13] in a line: Tasting in soy sauce. The conditions noted are these: 0.5 ppm in Kikkoman soy sauce low salt. The protocol: as §6
Salt level pure product between 5-40%
Salt level in application 0.3-1.0%
as §5
Test on Kikkoman Soy Sauce Low Salt
Base is Kikkoman soy sauce
Samples were prepared and evaluated by expert tasters. Tasters were asked to describe the samples focusing on authentic taste, mouthfeel, fullness, salivation, salty-ness, umami, sweetness, juiciness, richness, long lastingness and fattiness.

Setting [14] is: 1 ppm, 7% sugar (8% elsewhere in the source).

Entries after “also recorded” stand apart in the source; their conditions may differ.

On to `CCCCC/C=C\C/C=C\CCCCCCCC(=O)NC(CC(=O)O)C(=O)O` (stereo not shown) [C18:2-asp, N-linoleoyl-Asp], for which the tasting result in assay [1] was “fatty, authentic fruit like, slight raspberry and pear note”; in [2] (2 ppm) it was “sweet full very natural vanilla”; in assay [3] (2 ppm), “cardboard, sweet diy”; in assay [4] (setting [14]) it was “very juicy, authentic, texture like pear 3D”; in assay [5] it was “fatty skin like, slight apple note”.
Take `CCCCCCCC/C=C\CCCCCCCC(=O)NC(CCC(=O)O)C(=O)O` (stereo not shown) [C18:1-glu]: the tasting result in assay [6] (2 ppm) was “full, fatty, vanilla bean enhanced, whipped cream like”; in assay [1], “heavy, jammy, enhanced mango, more sulfury, sl umami”; in [7], “nice mouthfeel, more natural strawberry, full juicy”; in assay [2] (1 ppm), “full, beany, more sweet; also recorded: sweet vanillic”; in assay [3] (0.5 ppm) it was “full cocoa, nice sweet”; in [4] (0.5 ppm, 7% sugar) it was “nice fatty, juicy, long lasting”. Besides, the tasting result in [4] (setting [14]) was “ripe, authentic pear, juicy, fatty skin like”; in assay [5], “ripe, much more juicy, long lasting, more fatty and sweet”.
Regarding `CCCCCCCC/C=C\CCCCCCCC(=O)NC(CCSC)C(=O)O` (stereo not shown) [C18:1-met], the tasting result in [8] (0.5 PPM in beef bouillon base 1.0% salt) was “Very salty and rich”; in assay [8] (1.0 PPM in beef bouillon base 1.0% salt), “Full bodied, long lasting, more mouthfeel”; in assay [9] (0.25 ppm on fried potato snack) it was “Salty, aged cheese, succulent”; in [9] (0.5 ppm on fried potato snack) it was “Increased cheese, creamy, salty and succulent”; in assay [1] it was “sweeter, juicy, salivating”; in assay [10] (1 ppm) it was “very strong salty impact and aftertaste; also recorded: very strong salty impact and aftertaste, more fatty, mouthfeel, lingering full bodied”. Besides, the tasting result in assay [10] (25 ppb) is on record as “more peppery, more salty”; in assay [10] (50 ppb) it was “more salty, more bouillon taste”; in assay [11] it was “very juicy fresh, authentic, juicy”; in assay [12], “fresh, less floral, very juicy, very authentic”.
In the case of “N-oleoyl 1-amino-cyclopropyl carboxylic acid [C18:1-ACCA]”, the tasting result in assay [13] is “Strong upfront saltiness lingering, very strong saltiness”; in assay [6] (0.5 ppm), “sweet, sugar-like, vanillic”.
On to `CCCCCC/C=C\CCCC(=O)NC(CCSC)C(=O)O` (stereo not shown) [C12:1-met], for which the tasting result in [1] is recorded as “ripe full, more juicy, slightly metallic”; in assay [10] (1 ppm), “more salty”; in assay [11], “nice orange, fresh”; in [12] it was “fresh, slightly more citral”.
As to `CCCCCCCCCCCCCCCC(=O)NC(CCC(=O)O)C(=O)O` (stereo not shown) [C16:0-glu, N-palmitoyl-Glu], the tasting result in assay [1] was “slightly more juicy impact”; in assay [2] (1 ppm), “ice cream like, sweet, very full”; in assay [3] (0.5 ppm), “sweet, fatty cocoa, sulphur is enhanced, enhanced nib note”; in assay [4] (0.5 ppm, 7% sugar) it was “fatty long lasting”; in assay [5], “fruity, nice juicy, sweet, soft peach skin”.

Values taken from patent US11091429B2, “Organic compounds” (Givaudan SA, priority 2012, dated 2021).
